Data: patent US6214859A, “Ethylamine derivatives” (Fujimoto Brothers Co., Ltd., priority 1997, dated 2001)
Several values for one entry are separate records, joined by “and”; a condition that tells them apart may be missing. Identical values can stand only once.

Experiments:
[1] = system: dopamine release, substantia nigra; assay: Release of biogenic amines from brain tissue: dopamine, substantia nigra; format: in vivo, Wistar rats
[2] = system: dopamine release, tuberculum olfactorium; assay: Release of biogenic amines from brain tissue: dopamine, tuberculum olfactorium; format: in vivo, Wistar rats
[3] = system: noradrenaline release, locus coeruleus; assay: Release of biogenic amines from brain tissue: noradrenaline, locus coeruleus; format: in vivo, Wistar rats
human platelet MAO-B = target: T1, human platelet MAO-B (Homo sapiens, UniProt P27338); assay: biochemical; details: 10^-5 M; read-out: Inhibition rate of MAO-B
T1 construct: The suspension was used as enzyme for MAO activity assay in blood platelets; from tissue; host or cells: human blood platelets (frozen, thawed and sonicated platelet rich plasma)
T1 sequence (P27338 1-520): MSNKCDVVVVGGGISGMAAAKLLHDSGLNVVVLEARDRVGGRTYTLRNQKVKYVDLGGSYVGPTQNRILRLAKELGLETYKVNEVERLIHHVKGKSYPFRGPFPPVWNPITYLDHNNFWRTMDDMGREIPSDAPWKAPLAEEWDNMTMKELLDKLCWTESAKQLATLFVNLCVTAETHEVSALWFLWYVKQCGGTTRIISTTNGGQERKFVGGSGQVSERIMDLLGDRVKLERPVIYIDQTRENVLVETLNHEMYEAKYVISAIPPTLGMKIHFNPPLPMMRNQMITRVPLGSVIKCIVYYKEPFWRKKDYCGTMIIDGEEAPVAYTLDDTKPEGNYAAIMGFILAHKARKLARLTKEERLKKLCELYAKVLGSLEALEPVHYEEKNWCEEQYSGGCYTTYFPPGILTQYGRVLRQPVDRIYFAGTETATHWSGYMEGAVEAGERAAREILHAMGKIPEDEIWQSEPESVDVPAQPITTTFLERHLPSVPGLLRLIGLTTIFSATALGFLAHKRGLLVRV
Description: Human blood added with 3.8% citric acid was centrifuged at 950 rpm for 10 min and platelet rich plasma (PRP) was obtained. The residual blood cell was centrifuged at 3,000 rpm for 10 min and platelet poor plasma (PPP) was obtained. After blood platelets were measured from a part of PRP, PRP and PPP were frozen at -20° C. They were thawed and were sonicated to be dispersed and suspended when MAO activity was measured. The suspension was used as enzyme for MAO activity assay in blood platelets. In addition, almost all of MAO in blood platelets have been known to be B type.
MAO-B activity was determined according to the method described in Biochem. Pharmacol., 14, 1684-1685 (1965). […] The mixture was incubated at 37° C. for 5 min. After 80 μl of PRP or PPP was added to it, the mixture was incubated at 37° C. for 20 min. Thereafter, 120 μl of substrate (0.33 mg/ml kynuramine dihydrobromide) was added thereto. After incubation at 37° C. for 30 min, 800 μl of 10% trichloroacetic acid were added to stop the reaction and the solution was centrifuged at 3,000 rpm for 10 min. To 1 ml of the supernatant, 2 ml of 1 N NaOH was added and fluorescence of the solution was measured at Ex 312 nm and Em 380 nm. PRP was prepared to 250,000 cell/μl as amounts of blood platelets with […] phosphate buffer solution and 4-hydroxyquinoline was used as standard for measurement.

α2 receptor = assay: Affinity to α2 receptor; set-up: species or system rat; details: read-out: Affinity to α2 receptor (MIC50; mole concentration for 50% inhibition of binding); 0.7 nM ^3H-rauwolscine
D1 receptor = target: T2, D1 receptor (Rattus norvegicus, UniProt P18901); assay: Affinity to D1 receptor; format: binding
T2 construct: The precipitate was used as the solution of receptor; from tissue; host or cells: rat brain (whole) crude membranes
T2 sequence (P18901 whole entry): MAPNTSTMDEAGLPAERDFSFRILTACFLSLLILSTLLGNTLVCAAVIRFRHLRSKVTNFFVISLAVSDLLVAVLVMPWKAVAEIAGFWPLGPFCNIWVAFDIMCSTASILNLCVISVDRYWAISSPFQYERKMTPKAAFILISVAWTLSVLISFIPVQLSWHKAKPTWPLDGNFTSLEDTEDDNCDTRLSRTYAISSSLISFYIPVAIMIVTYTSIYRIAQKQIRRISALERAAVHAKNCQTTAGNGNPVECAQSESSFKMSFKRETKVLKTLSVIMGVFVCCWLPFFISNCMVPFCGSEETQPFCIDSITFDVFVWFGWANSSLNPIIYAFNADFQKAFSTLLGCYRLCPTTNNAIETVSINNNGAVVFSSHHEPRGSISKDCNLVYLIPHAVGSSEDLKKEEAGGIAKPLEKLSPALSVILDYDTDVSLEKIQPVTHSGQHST

D2 receptor = assay: Affinity to D2 receptor; set-up: species or system rat; details: read-out: Affinity to D2 receptor (MIC50; mole concentration for 50% inhibition of binding); 2.0 nM spiperone
5-HT1 receptor = assay: Affinity to 5-HT1 receptor; set-up: species or system rat; details: read-out: Affinity to 5-HT1 receptor (MIC50; mole concentration for 50% inhibition of binding); 2 nM ^3H-5-HT
5-HT2 receptor = target: T3, 5-HT2 receptor (Rattus norvegicus, UniProt P14842); assay: Affinity to 5-HT2 receptor; format: binding
T3 construct: The precipitate was used as the solution of receptor; from tissue; host or cells: rat brain (whole) crude membranes
T3 sequence (P14842 whole entry): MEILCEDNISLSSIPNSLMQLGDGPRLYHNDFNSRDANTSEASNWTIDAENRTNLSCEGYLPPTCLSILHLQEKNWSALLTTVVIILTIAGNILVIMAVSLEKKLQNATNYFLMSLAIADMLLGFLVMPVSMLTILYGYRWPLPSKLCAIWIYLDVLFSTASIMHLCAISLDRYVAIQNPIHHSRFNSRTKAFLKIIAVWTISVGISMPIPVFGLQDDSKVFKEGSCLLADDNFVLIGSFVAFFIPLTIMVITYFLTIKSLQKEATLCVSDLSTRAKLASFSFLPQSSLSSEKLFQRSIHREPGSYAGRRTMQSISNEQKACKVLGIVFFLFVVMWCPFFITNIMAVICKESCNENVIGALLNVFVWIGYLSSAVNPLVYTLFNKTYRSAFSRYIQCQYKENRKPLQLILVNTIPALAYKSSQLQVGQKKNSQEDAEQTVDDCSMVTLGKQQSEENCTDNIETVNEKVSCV

With `CCCNC(CCC)Cc1ccc2c(c1)OCO2.Cl` (stereo not shown) [Compound No. 27, 1-(1,3-Benzodioxol-5-yl)-2-propylaminopentane Hydrochloride] the “Release of dopamine, substantia nigra” value ([1]; 0.10 mg/kg s.c.) was 7.8 ± 0.44 nmol/g tissue, for 20 min, the “Release of dopamine, substantia nigra” value ([1]; 0.25 mg/kg s.c.) was 9.5 ± 0.32 nmol/g tissue, for 20 min and the “Release of dopamine, tuberculum olfactorium” value ([2]; 0.10 mg/kg s.c.) was 4.7 ± 0.13 nmol/g tissue, for 20 min. For the same compound, the “Release of dopamine, tuberculum olfactorium” value ([2]; 0.25 mg/kg s.c.) was 5.2 ± 0.23 nmol/g tissue, for 20 min, the “Release of noradrenaline, locus coeruleus” value (shortened to “Release of noradrenaline”) ([3]; 0.10 mg/kg s.c.) was 3.8 ± 0.15 nmol/g tissue, for 20 min and the “Release of noradrenaline” value ([3]; 0.25 mg/kg s.c.) was 3.5 ± 0.20 nmol/g tissue, for 20 min. It also gave an inhibition at 10 µM (human platelet MAO-B) of 34%.
For `CCCNC(CCC)Cc1c[nH]c2ccccc12.Cl` (stereo not shown) [Compound No. 20, 1-(Indol-3-yl)-2-propylaminopentane Hydrochloride], the “Release of dopamine, substantia nigra” value ([1]; 0.005 mg/kg s.c.) was 8.7 ± 0.13 nmol/g tissue, for 20 min, the “Release of dopamine, substantia nigra” value ([1]; 0.01 mg/kg s.c., Hydrochloride) was 10.3 ± 0.23 nmol/g tissue, for 20 min and 10.0 ± 0.14 nmol/g tissue, for 20 min and the “Release of dopamine, substantia nigra” value ([1]; 0.05 mg/kg s.c.) was 7.7 ± 0.15 nmol/g tissue, for 20 min. The “Release of dopamine, substantia nigra” value ([1]; 0.25 mg/kg s.c.) was 5.2 ± 0.26 nmol/g tissue, for 20 min, the “Release of dopamine, substantia nigra” value ([1]; 1.00 mg/kg s.c.) was 6.7 ± 0.19 nmol/g tissue, for 20 min and the “Release of dopamine, substantia nigra” value ([1]; 5.00 mg/kg s.c.) was 5.7 ± 0.18 nmol/g tissue, for 20 min. For the same compound, the “Release of dopamine, tuberculum olfactorium” value ([2]; 0.005 mg/kg s.c.) was 7.0 ± 0.25 nmol/g tissue, for 20 min, the “Release of dopamine, tuberculum olfactorium” value ([2]; 0.01 mg/kg s.c., Hydrochloride) was 8.0 ± 0.17 nmol/g tissue, for 20 min and 5.5 ± 0.20 nmol/g tissue, for 20 min and the “Release of dopamine, tuberculum olfactorium” value ([2]; 0.05 mg/kg s.c.) was 5.8 ± 0.19 nmol/g tissue, for 20 min. For the same compound, the “Release of dopamine, tuberculum olfactorium” value ([2]; 0.25 mg/kg s.c.) was 3.5 ± 0.21 nmol/g tissue, for 20 min, the “Release of dopamine, tuberculum olfactorium” value ([2]; 1.00 mg/kg s.c.) was 4.3 ± 0.07 nmol/g tissue, for 20 min and the “Release of dopamine, tuberculum olfactorium” value ([2]; 5.00 mg/kg s.c.) was 4.8 ± 0.09 nmol/g tissue, for 20 min. The “Release of noradrenaline” value ([3]; 0.005 mg/kg s.c.) was 5.3 ± 0.30 nmol/g tissue, for 20 min, the “Release of noradrenaline” value ([3]; 0.01 mg/kg s.c., Hydrochloride) was 4.3 ± 0.10 nmol/g tissue, for 20 min and 2.2 ± 0.15 nmol/g tissue, for 20 min and the “Release of noradrenaline” value ([3]; 0.05 mg/kg s.c.) was 3.2 ± 0.15 nmol/g tissue, for 20 min. The “Release of noradrenaline” value ([3]; 0.25 mg/kg s.c.) was 4.3 ± 0.15 nmol/g tissue, for 20 min, the “Release of noradrenaline” value ([3]; 1.00 mg/kg s.c.) was 4.4 ± 0.25 nmol/g tissue, for 20 min and the “Release of noradrenaline” value ([3]; 5.00 mg/kg s.c.) was 3.5 ± 0.20 nmol/g tissue, for 20 min. For the same compound, the inhibition at 10 µM (human platelet MAO-B) was 6.4%, the IC50 (α2 receptor) was 0.9 µM and the IC50 (D1 receptor) was greater than 10 µM. The IC50 (D2 receptor) was greater than 10 µM, the IC50 (5-HT1 receptor) was 7 µM and the IC50 (5-HT2 receptor) was greater than 10 µM.
